Molecular target: T1, human IDO1 (Homo sapiens, UniProt P14902)
T1 construct: expressed in transfected cells
Test: HEK293 cells stably expressing human IDO1, IDO inhibition assay (kynurenine, Ehrlich reagent, absorbance 490 nm)
Format: cell-based
Details: 20 hours incubation, 500 nM reference standard = 100% inhibition, read-out: HEK Human IDO-1 Biological Activity (IC50)
Method: HEK293 cells were transfected with a pCDNA-based mammalian expression vector harboring human IDO1 cDNA (NM 002164.2) by electroporation. They were cultured in medium (DMEM with 10% FBS) containing 1 mg/ml G418 for two weeks. Clones of HEK293 cells that stably expressed human IDO1 protein were selected and expanded for IDO inhibition assay.
The human IDO1/HEK293 cells were seeded at 10,000 cells per 50 μL per well with RPMI/phenol red free media contains 10% FBS in a 384-well black wall clear bottom tissue culture plate (Matrix Technologies LLC) 100 nL of certain concentration of compound was then added to each well using ECHO liquid handling systems. The cells were incubated for 20 hours in 37° C. incubator with 5% CO2.
The compound treatments were stopped by adding Trichloroacetic Acid (Sigma-Aldrich) to a final concentration at 0.2%. The cell plate was further incubated at 50° C. for 30 minute. The equal volume supernatant […] and 0.2% (w/v) Ehrlich reagent (4-dimethylaminobenzaldehyde, Sigma-Aldrich) in glacial acetic acid were mixed in a new clear bottom 384-well plate. This plate was then incubated at room temperature for 30 minute. The absorbance at 490 nm was measured on Envision plate reader.

T1 sequence (P14902 whole entry): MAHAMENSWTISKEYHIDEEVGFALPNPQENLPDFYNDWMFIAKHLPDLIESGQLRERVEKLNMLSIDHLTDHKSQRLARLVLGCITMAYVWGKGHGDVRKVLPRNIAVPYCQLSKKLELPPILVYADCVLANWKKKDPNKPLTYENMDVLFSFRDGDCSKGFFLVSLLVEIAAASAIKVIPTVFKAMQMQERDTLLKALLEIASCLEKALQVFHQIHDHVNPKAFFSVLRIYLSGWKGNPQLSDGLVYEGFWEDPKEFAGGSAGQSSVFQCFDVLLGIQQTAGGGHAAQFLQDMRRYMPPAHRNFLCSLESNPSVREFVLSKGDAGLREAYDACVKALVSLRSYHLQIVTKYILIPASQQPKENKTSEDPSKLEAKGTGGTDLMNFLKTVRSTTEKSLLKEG

Row | Structure (SMILES) | IC50 [µM]
1 | Cc1cnccc1C1CCC(C(C)C(=O)Nc2ccc(Cl)cc2)CC1 (single isomer, unassigned) [Example 313c, N-(4-chlorophenyl)-2-(4-(3-methylpyridin-4-yl)cyclohexyl) propanamide] | > 0.25
2 | Cc1cnccc1C1CCC(C(C)C(=O)Nc2ccc(Cl)cc2)CC1 (single isomer, unassigned) [Example 313e, N-(4-chlorophenyl)-2-(4-(3-methylpyridin-4-yl)cyclohexyl) propanamide] | > 0.25
3 | CC(C(=O)Nc1ccc(Cl)cc1)C1CCC(c2ccnnc2)CC1 (single isomer, unassigned) [Example 316a, N-(4-chlorophenyl)-2-(4-(pyridazin-4-yl)cyclohexyl) propanamide] | > 0.25
4 | CC(C(=O)Nc1ccc(Cl)cc1)C1CCC(c2ccnnc2)CC1 (single isomer, unassigned) [Example 316b, N-(4-chlorophenyl)-2-(4-(pyridazin-4-yl)cyclohexyl) propanamide] | > 0.25
5 | CC(C(=O)Nc1ccc(Cl)cc1)C1CCC(c2ccnnc2)CC1 (single isomer, unassigned) [Example 316c, N-(4-chlorophenyl)-2-(4-(pyridazin-4-yl)cyclohexyl) propanamide] | > 0.25
6 | CC(C(=O)Nc1ccc(Cl)cc1)C1CCC(c2ccnnc2)CC1 (single isomer, unassigned) [Example 316d, N-(4-chlorophenyl)-2-(4-(pyridazin-4-yl)cyclohexyl) propanamide] | > 0.25
7 | CC(C(=O)Nc1ccc(Cl)cc1)C1CCC(c2cccc(-c3ccccc3)c2)CC1 (single isomer, unassigned) [Example 317c, 2-(4-([1,1′-biphenyl]-3-yl)cyclohexyl)-N-(4-chlorophenyl) propanamide] | > 0.25
8 | CC(C(=O)Nc1ccc(Cl)cc1)C1CCC(c2cccc(-c3ccccc3)c2)CC1 (single isomer, unassigned) [Example 317d, 2-(4-([1,1′-biphenyl]-3-yl)cyclohexyl)-N-(4-chlorophenyl) propanamide] | > 0.25
9 | CC(C(=O)Nc1ccc(Cl)cc1)C1CCC(c2ccncc2F)CC1 (single isomer, unassigned) [Example 318b, N-(4-chlorophenyl)-2-(4-(3-fluoropyridin-4-yl)cyclohexyl) propanamide] | < 0.05
10 | CC(C(=O)Nc1ccc(Cl)cc1)C1CCC(c2ccncc2F)CC1 (single isomer, unassigned) [Example 318c, N-(4-chlorophenyl)-2-(4-(3-fluoropyridin-4-yl)cyclohexyl) propanamide] | > 0.25
11 | CC(C(=O)Nc1ccc(Cl)cc1)C1CCC(c2ccncc2F)CC1 (single isomer, unassigned) [Example 318d, N-(4-chlorophenyl)-2-(4-(3-fluoropyridin-4-yl)cyclohexyl) propanamide] | < 0.25
12 | CC(C(=O)Nc1ccc(Cl)cc1)C1CCC(c2ccncc2F)CC1 (single isomer, unassigned) [Example 318e, N-(4-chlorophenyl)-2-(4-(3-fluoropyridin-4-yl)cyclohexyl) propanamide] | < 0.05
13 | C[C@@H](C(=O)Nc1ccc(Cl)cc1)[C@H]1CC[C@H](Oc2ccnc(C(F)(F)F)c2)CC1 (single isomer, unassigned) [Example 324b] | > 0.25
14 | CC(C(=O)Nc1ccc(Cl)cc1)C1CCC(c2ccncc2F)CC1 (centres unmarked) [Example 318a, N-(4-chlorophenyl)-2-(4-(3-fluoropyridin-4-yl)cyclohexyl) propanamide] | < 0.05
15 | Cc1nccc(C2CCC(C(C)C(=O)Nc3ccc(Cl)cc3)CC2)n1 (centres unmarked) [Example 319b, N-(4-chlorophenyl)-2-(4-(2-methylpyrimidin-4-yl)cyclohexyl) propanamide] | > 0.25
16 | CC1(CC(=O)Nc2ccc(Cl)cc2)CCN(c2ccnc(C(F)(F)F)c2)CC1 [Example 321, N-(4-Chlorophenyl)-2-(4-methyl-1-(2-(trifluoromethyl)pyridin-4-yl)piperidin-4-yl)acetamide] | < 0.25
17 | CC1(CC(=O)NC2(C)CCCCC2)CCN(c2ccnc(C(F)(F)F)c2)CC1 [Example 322, 2-(4-Methyl-1-(2-(trifluoromethyl)pyridin-4-yl)piperidin-4-yl)-N-(1-methylcyclohexyl)acetamide] | > 0.25

Results, then the compound that gave them:

Row | IC50 [µM] | Structure (SMILES)
18 | < 0.05 | Cc1cnccc1C1CCC(C(C)C(=O)Nc2ccc(Cl)cc2)CC1 (single isomer, unassigned) [Example 313a, N-(4-chlorophenyl)-2-(4-(3-methylpyridin-4-yl)cyclohexyl) propanamide]
19 | < 0.05 | Cc1cnccc1C1CCC(C(C)C(=O)Nc2ccc(Cl)cc2)CC1 (single isomer, unassigned) [Example 313b, N-(4-chlorophenyl)-2-(4-(3-methylpyridin-4-yl)cyclohexyl) propanamide]
20 | < 0.05 | Cc1cnccc1C1CCC(C(C)C(=O)Nc2ccc(Cl)cc2)CC1 (single isomer, unassigned) [Example 313d, N-(4-chlorophenyl)-2-(4-(3-methylpyridin-4-yl)cyclohexyl) propanamide]
21 | < 0.05 | Cc1cnccc1C1CCC(C(C)C(=O)Nc2ccc(Cl)cc2)CC1 (single isomer, unassigned) [Example 313f, N-(4-chlorophenyl)-2-(4-(3-methylpyridin-4-yl)cyclohexyl) propanamide]
22 | < 0.25 | CC(C(=O)Nc1ccc(Cl)cc1)C1CCC(c2cc(-c3ccc(F)cc3)ncn2)CC1 (single isomer, unassigned) [Example 314b, N-(4-chlorophenyl)-2-(4-(6-(4-fluorophenyl)pyrimidin-4-yl)cyclohexyl) propanamide]
23 | < 0.25 | CC(=O)Nc1cc(C2CCC(C(C)C(=O)Nc3ccc(Cl)cc3)CC2)ccn1 (single isomer, unassigned) [Example 315a, 2-(4-(2-acetamidopyridin-4-yl)cyclohexyl)-N-(4-chlorophenyl) propanamide]
24 | < 0.05 | CC(=O)Nc1cc(C2CCC(C(C)C(=O)Nc3ccc(Cl)cc3)CC2)ccn1 (single isomer, unassigned) [Example 315b, 2-(4-(2-acetamidopyridin-4-yl)cyclohexyl)-N-(4-chlorophenyl) propanamide]
25 | < 0.05 | CC(C(=O)Nc1ccc(Cl)cc1)C1CCC(c2cccc(-c3ccccc3)c2)CC1 (single isomer, unassigned) [Example 317a, 2-(4-([1,1′-biphenyl]-3-yl)cyclohexyl)-N-(4-chlorophenyl) propanamide]
26 | < 0.05 | CC(C(=O)Nc1ccc(Cl)cc1)C1CCC(c2cccc(-c3ccccc3)c2)CC1 (single isomer, unassigned) [Example 317b, 2-(4-([1,1′-biphenyl]-3-yl)cyclohexyl)-N-(4-chlorophenyl) propanamide]
27 | < 0.05 | Cc1nccc(O[C@H]2CC[C@H](C(C)C(=O)Nc3ccc(Cl)cc3)CC2)c1Cl (single isomer, unassigned) [Example 320, rac-2-((trans)-4-((3-chloro-2-methylpyridin-4-yl)oxy)cyclohexyl)-N-(4-chlorophenyl)propanamide]
28 | < 0.25 | C[C@H](C(=O)Nc1ccc(Cl)cc1)[C@H]1CC[C@H](Oc2ccnc(C(F)(F)F)c2)CC1 (single isomer, unassigned) [Example 324a]
29 | < 0.05 | COc1cc(C2CCC(C(C)C(=O)Nc3ccc(Cl)cc3)CC2)ccn1 (stereo not drawn) [Example 307a, Cis- or trans-N-(4-Chlorophenyl)-2-(4-(2-methoxypyridin-4-yl)cyclohexyl)propanamide]
30 | < 0.05 | COc1cc(C2CCC(C(C)C(=O)Nc3ccc(Cl)cc3)CC2)ccn1 (stereo not drawn) [Example 307b, Cis- or trans-N-(4-Chlorophenyl)-2-(4-(2-methoxypyridin-4-yl)cyclohexyl)propanamide]
31 | < 0.25 | CC(C(=O)Nc1ccc(Cl)cc1)C1CCC(c2cc(-c3ccc(F)cc3)ncn2)CC1 (centres unmarked) [Example 314a, N-(4-chlorophenyl)-2-(4-(6-(4-fluorophenyl)pyrimidin-4-yl)cyclohexyl) propanamide]
32 | < 0.25 | Cc1nccc(C2CCC(C(C)C(=O)Nc3ccc(Cl)cc3)CC2)n1 (centres unmarked) [Example 319a, N-(4-chlorophenyl)-2-(4-(2-methylpyrimidin-4-yl)cyclohexyl) propanamide]
